# Laboratory results as given in patent US20260132125A1, “PESTICIDALLY ACTIVE FUSED BICYCLIC HETEROAROMATIC COMPOUNDS” (priority 2022, published 2026).
# Tests used:
# Assay type in all cases: in vivo
# Plutella xylostella = experiment: Example B5: activity against Plutella xylostella (diamond back moth), artificial diet, eggs; details: 192 h, 8 days after infestation, read-out: effect in at least one of the two categories (mortality or growth inhibition)
# Procedure: 24-well microtiter plates with artificial diet were treated with aqueous test solutions prepared from 10′000 ppm DMSO stock solutions by pipetting. After drying, Plutella eggs were pipetted through a plastic stencil onto a gel blotting paper and the plate was closed with it. The samples were assessed for mortality and growth inhibition in comparison to untreated samples 8 days after infestation. The following compounds gave an effect of at least 80% in at least one of the two categories (mortality or growth inhibition) at an application rate of 200 ppm: P1, P2, P3, P4, P5, P6, P7, P8, P9, P10, P11, P12, P13, P14, P15, P16, P17, P18, P19, P20, P21, P22, P23, P24, P25, P26, P27, P28, P29, P30, P31, P32, P33, P34, P35, P36, P37, P38, P39, P40, P41, P42, P43, P44, P45, P46, P47, P48, P49, P50, P51, P52, P53, P54, P55, P57, P58, P59, P60, P61, P62, P63, P64, P65, P66, P67, P69, P70, P71, P72, P73, P74, P75, P77, P78, P81, P82, P83.
# Spodoptera littoralis = experiment: Example B6: activity against Spodoptera littoralis (Egyptian cotton leaf worm), cotton leaf discs; details: foliar; for percent control (mortality, anti-feedant effect or growth inhibition) at 200 ppm: 72 h, L1 larvae, 3 days after infestation, read-out: control (at least one of mortality, anti-feedant effect, growth inhibition)
# Procedure: Cotton leaf discs were placed onto agar in 24-well microtiter plates and sprayed with aqueous test solutions prepared from 10′000 ppm DMSO stock solutions. After drying the leaf discs were infested with five L1 larvae. The samples were assessed for mortality, anti-feeding effect, and growth inhibition in comparison to untreated samples 3 days after infestation. Control of Spodoptera littoralis by a test sample is given when at least one of the categories mortality, anti-feedant effect, and growth inhibition is higher than the untreated sample.
# Chilo suppressalis = experiment: Example B1: activity against Chilo suppressalis (striped rice stemborer), artificial diet; details: for percent control (mortality, anti-feedant effect or growth inhibition) at 200 ppm: 144 h, L2 larvae, 6 days after infestation, read-out: control (at least one of mortality, anti-feedant effect, growth inhibition)
# Procedure: 24-well microtiter plates with artificial diet were treated with aqueous test solutions prepared from 10′000 ppm DMSO stock solutions by pipetting. After drying, the plates were infested with L2 larvae (6-8 per well). The samples were assessed for mortality, anti-feeding effect, and growth inhibition in comparison to untreated samples 6 days after infestation. Control of Chilo suppressalis by a test sample is given when at least one of the categories mortality, anti-feedant effect, and growth inhibition is higher than the untreated sample.
# Diabrotica balteata = experiment: Example B2: activity against Diabrotica balteata (corn root worm), maize sprouts; details: 96 h, L2 larvae, 4 days after infestation, read-out: effect in at least one of the two categories (mortality or growth inhibition)
# Procedure: Maize sprouts placed onto an agar layer in 24-well microtiter plates were treated with aqueous test solutions prepared from 10′000 ppm DMSO stock solutions by spraying. After drying, the plates were infested with L2 larvae (6 to 10 per well). The samples were assessed for mortality and growth inhibition in comparison to untreated samples 4 days after infestation. The following compounds gave an effect of at least 80% in at least one of the two categories (mortality or growth inhibition) at an application rate of 200 ppm: P1, P2, P3, P4, P5, P7, P8, P9, P10, P11, P12, P13, P14, P15, P16, P17, P18, P19, P20, P21, P22, P23, P24, P25, P26, P27, P28, P29, P30, P31, P33, P34, P35, P36, P37, P38, P39, P40, P41, P42, P43, P45, P46, P47, P48, P49, P50, P51, P52, P53, P55, P57, P58, P59, P60, P61, P62, P63, P64, P65, P66, P67, P69, P71, P75, P81, P82, P83.
Structure (SMILES),percent effect (mortality or growth inhibition) at 200 ppm (Plutella xylostella),"percent control (mortality, anti-feedant effect or growth inhibition) at 200 ppm (Spodoptera littoralis)","percent control (mortality, anti-feedant effect or growth inhibition) at 200 ppm (Chilo suppressalis)",percent effect (mortality or growth inhibition) at 200 ppm (Diabrotica balteata),mortality at 3.12 ppm (Spodoptera littoralis),mortality at 50 ppm (Chilo suppressalis),mortality at 12.5 ppm (Chilo suppressalis; 12.5 ppm),mortality at 50 ppm (Spodoptera littoralis; 50 ppm)
"CCN(C)C(=O)c1cnc(-n2ncnc2[C@H](C)Nc2ncnc3c(C(F)(F)F)cc(Cl)cc23)s1 [Compound P6, 2-[5-[(1S)-1-[[6-chloro-8-(trifluoromethyl)quinazolin-4-yl]amino]ethyl]-1,2,4-triazol-1-yl]-N-ethyl-N-methyl-thiazole-5-carboxamide]",≥ 80%,≥ 80%,≥ 80%,–,–,–,–,–
"C[C@H](Nc1ncnc2c(C(F)(F)F)cc(Cl)cc12)c1ncnn1-c1ccc(C(N)=O)nn1 [Compound P20, 6-[5-[(1S)-1-[[6-chloro-8-(trifluoromethyl)quinazolin-4-yl]amino]ethyl]-1,2,4-triazol-1-yl]pyridazine-3-carboxamide]",≥ 80%,–,≥ 80%,≥ 80%,–,–,–,–
"C[C@H](Nc1ncnc2c(C(F)(F)F)cc(Cl)cc12)c1ncnn1-c1cc(C(=O)NC2(C#N)CC2)ncn1 [Compound P22, 6-[5-[(1S)-1-[[6-chloro-8-(trifluoromethyl)quinazolin-4-yl]amino]ethyl]-1,2,4-triazol-1-yl]-N-(1-cyanocyclopropyl)pyrimidine-4-carboxamide]",≥ 80%,≥ 80%,≥ 80%,≥ 80%,–,–,–,–
"CON(C)C(=O)c1cc(-n2ncnc2[C@H](C)Nc2ncnc3c(C(F)(F)F)cc(Cl)cc23)ncn1 [Compound P27, 6-[5-[(1S)-1-[[6-chloro-8-(trifluoromethyl)quinazolin-4-yl]amino]ethyl]-1,2,4-triazol-1-yl]-N-methoxy-N-methyl-pyrimidine-4-carboxamide]",≥ 80%,≥ 80%,–,≥ 80%,–,–,–,–
"CONC(=O)c1cc(-n2ncnc2[C@H](C)Nc2ncnc3c(C(F)(F)F)cc(Cl)cc23)ncn1 [Compound P28, 6-[5-[(1S)-1-[[6-chloro-8-(trifluoromethyl)quinazolin-4-yl]amino]ethyl]-1,2,4-triazol-1-yl]-N-methoxy-pyrimidine-4-carboxamide]",≥ 80%,≥ 80%,≥ 80%,≥ 80%,–,–,–,–
"C[C@H](Nc1ncnc2c(C(F)(F)F)cc(Cl)cc12)c1ncnn1-c1cc(C(=O)N2CCOCC2)ncn1 [Compound P32, [6-[5-[(1S)-1-[[6-chloro-8-(trifluoromethyl)quinazolin-4-yl]amino]ethyl]-1,2,4-triazol-1-yl]pyrimidin-4-yl]-morpholino-methanone]",≥ 80%,≥ 80%,≥ 80%,–,–,–,–,–
"C[C@H](Nc1ncnc2c(C(F)(F)F)cc(Cl)cc12)c1ncnn1-c1cc(C(=O)NC(C)(C#N)C2CC2)ncn1 (stereo partly drawn) [Compound P42, 6-[5-[(1S)-1-[[6-chloro-8-(trifluoromethyl)quinazolin-4-yl]amino]ethyl]-1,2,4-triazol-1-yl]-N-(1-cyano-1-cyclopropyl-ethyl)pyrimidine-4-carboxamide]",≥ 80%,≥ 80%,≥ 80%,≥ 80%,–,–,–,–
"C[C@H](Nc1ncnc2c(C(F)(F)F)cc(Cl)cc12)c1ncnn1-c1cc(C(=O)NC2(C)CS(=O)(=O)C2)ncn1 [Compound P44, 6-[5-[(1S)-1-[[6-chloro-8-(trifluoromethyl)quinazolin-4-yl]amino]ethyl]-1,2,4-triazol-1-yl]-N-(3-methyl-1,1-dioxo-thietan-3-yl)pyrimidine-4-carboxamide]",≥ 80%,–,–,–,–,–,–,–
"C[C@H](Nc1ncnc2c(C(F)(F)F)cc(Cl)cc12)c1ncnn1-c1cc(C(=O)NC2(C)CSC2)ncn1 [Compound P45, 6-[5-[(1S)-1-[[6-chloro-8-(trifluoromethyl)quinazolin-4-yl]amino]ethyl]-1,2,4-triazol-1-yl]-N-(3-methylthietan-3-yl)pyrimidine-4-carboxamide]",≥ 80%,≥ 80%,–,≥ 80%,–,–,–,–
"CC(Nc1ncnc2c(C(F)(F)F)cc(Cl)cc12)c1nccnc1-c1cc(C(N)=O)ncn1 (stereo not drawn) [Compound P57, 6-[3-[1-[[6-chloro-8-(trifluoromethyl)quinazolin-4-yl]amino]ethyl]pyrazin-2-yl]pyrimidine-4-carboxamide]",≥ 80%,≥ 80%,≥ 80%,≥ 80%,80%,100%,–,–
"CC(Nc1ncnc2c(I)cc(Cl)cc12)c1nccnc1-c1cc(C(N)=O)ncn1 (stereo not drawn) [Compound P58, 6-[3-[1-[(6-chloro-8-iodo-quinazolin-4-yl)amino]ethyl]pyrazin-2-yl]pyrimidine-4-carboxamide]",≥ 80%,≥ 80%,≥ 80%,≥ 80%,–,–,–,–
"C[C@H](Nc1ncnc2c(Cl)cc(I)cc12)c1ncnn1-c1cnc(C(=O)NCC#N)cn1 [Compound P70, 5-[5-[(1S)-1-[(8-chloro-6-iodo-quinazolin-4-yl)amino]ethyl]-1,2,4-triazol-1-yl]-N-(cyanomethyl)pyrazine-2-carboxamide]",≥ 80%,≥ 80%,≥ 80%,–,–,–,–,–
"C[C@H](Nc1ncnc2c(Cl)cc(I)cc12)c1ncnn1-c1cnc(C(N)=O)cn1 [Compound P77, 5-[5-[(1S)-1-[(8-chloro-6-iodo-quinazolin-4-yl)amino]ethyl]-1,2,4-triazol-1-yl]pyrazine-2-carboxamide]",≥ 80%,–,≥ 80%,–,–,–,–,–
"C[C@H](Nc1ncnc2c(C(F)(F)F)cc(Cl)cc12)c1ncnn1-c1cc(C(=O)N(C)CC2CC2)ncn1 [Compound P78, 6-[5-[(1S)-1-[[6-chloro-8-(trifluoromethyl)quinazolin-4-yl]amino]ethyl]-1,2,4-triazol-1-yl]-N-(cyclopropylmethyl)-N-methyl-pyrimidine-4-carboxamide]",≥ 80%,–,–,–,–,–,–,–
"CC(Nc1ncnc2c(C(F)(F)F)cc(Cl)cc12)c1nccnc1-c1ncccn1 (stereo not drawn) [WO 21/083936 P.130, reference compound]",–,–,–,–,0%,0%,–,–
"C[C@H](Nc1ncnc2c(C(F)(F)F)cc(Cl)cc12)c1ncnn1-c1ncc(C#N)s1 [WO 22/268648 P10, reference compound]",–,–,–,–,–,–,0%,–
"C[C@H](Nc1ncnc2c(Cl)cc(I)cc12)c1ncnn1-c1ncc(C#N)s1 [WO 22/268648 P20, reference compound]",–,–,–,–,–,–,–,0%
